# In patent US8906928B2, “Substituted pyrazolo-pyrrolo-pyridine-dione compounds” (ArQule, Inc., priority 2009, dated 2014):
# Assays:
# [1] = test system: DLD-1; assay: MTS assay (cell growth inhibition), DLD-1; assay type: cell-based; details: DLD-1 cells, 72 hours incubation with test compound; concentration not given
# Summary of the method: (§1)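 First, seed 3000 cells per well in low-serum (1% FBS) DMEM and culture 18 h. Next, add compounds prepared at 300× in DMSO and diluted 1:40 in DMEM; incubate 72 h. Finally, add MTS/PMS for 4 h and measure absorbance at 492 nm.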
# [2] = test system: Kato III; assay: MTS assay (cell growth inhibition), Kato III; assay type: cell-based; details: Kato III cells, 72 hours incubation with test compound; concentration not given
# Summary of the method: as §1
# [3] = test system: MDA-MB; assay: MTS assay (cell growth inhibition), MDA-MB; assay type: cell-based; details: MDA-MB cells, 72 hours incubation with test compound; concentration not given
# Summary of the method: as §1
# [4] = test system: NCI-H1299; assay: MTS assay (cell growth inhibition), NCI-H1299; assay type: cell-based; details: NCI-H1299 cells, 72 hours incubation with test compound; concentration not given
# Summary of the method: as §1
# [5] = test system: PACA-2; assay: MTS assay (cell growth inhibition), PACA-2; assay type: cell-based; details: PACA-2 cells, 72 hours incubation with test compound; concentration not given
# Summary of the method: as §1
# [6] = test system: PC-3; assay: MTS assay (cell growth inhibition), PC-3; assay type: cell-based; details: PC-3 cells, 72 hours incubation with test compound; concentration not given
# Summary of the method: as §1
melting point [°C],Compound,MTS CELL KILL DATA (% INHIBITION) DLD-1 [1],MTS CELL KILL DATA (% INHIBITION) Kato III [2],MTS CELL KILL DATA (% INHIBITION) MDA-MB [3],MTS CELL KILL DATA (% INHIBITION) NCI-H1299 [4],MTS CELL KILL DATA (% INHIBITION) PACA-2 [5],MTS CELL KILL DATA (% INHIBITION) PC-3 [6]
208 to 211,"COc1ccc(OC)c(-c2ccccc2CN2C(=O)c3cnc4[nH]ncc4c3C2=O)c1 [Example 143, 7-[(2′,5′-dimethoxybiphenyl-2-yl)methyl]pyrazolo[3,4-b]pyrrolo[3,4-d]pyridine-6,8(3H,7H)-done]",C (C = <50% INHIBITION),C (C = <50% INHIBITION),A (A = 80-100% INHIBITION),C (C = <50% INHIBITION),C (C = <50% INHIBITION),A (A = 80-100% INHIBITION)
224 to 228,"O=C1c2cnc3[nH]nc(-c4ccccc4)c3c2C(=O)N1Cc1c(F)cccc1Cl [Example 169, 7-(2-chloro-6-fluorobenzyl)-1-phenylpyrazolo[3,4-b]pyrrolo[3,4-d]pyridine-6,8(3H,7H)-dione]",–,–,–,–,–,–
93 to 100,"O=C1c2cnc3[nH]ncc3c2C(=O)N1Cc1ccccc1-c1cccc(F)c1F [Example 141, 7-[(2′,3′-difluorobiphenyl-2-yl)methyl]pyrazolo[3,4-b]pyrrolo[3,4-d]pyridine-6,8(3H,7H)-dione]",–,–,–,–,–,–
237 to 239,"O=C1c2cnc3[nH]ncc3c2C(=O)N1CCc1ccccc1 [Example 2, 7-(2-phenylethyl)pyrazolo[3,4-b]pyrrolo[3,4-d]pyridine-6,8(3H,7H)-dione]",A (A = 80-100% INHIBITION),A (A = 80-100% INHIBITION),A (A = 80-100% INHIBITION),A (A = 80-100% INHIBITION),A (A = 80-100% INHIBITION),A (A = 80-100% INHIBITION)
> 300,"O=C1c2cnc3[nH]ncc3c2C(=O)N1CCC1CCNCC1 [Example 70, 7-(2-piperidin-4-ylethyl)pyrazolo[3,4-b]pyrrolo[3,4-d]pyridine-6,8(3H,7H)-dione]",–,–,–,–,–,–
199 to 200,"O=C1c2cnc3[nH]ncc3c2C(=O)N1Cc1ccccc1-c1ccc(F)cc1F [Example 145, 7-[(2′,4′-difluorobiphenyl-2-yl)methyl]pyrazolo[3,4-b]pyrrolo[3,4-d]pyridine-6,8(3H,7H)-dione]",–,–,–,–,–,–
134 to 137,"CC(C)(C)OC(=O)N1CCC(CN2C(=O)c3cnc4[nH]ncc4c3C2=O)CC1 [Example 140, tert-butyl 4-[(6,8-dioxo-6,8-dihydropyrazolo[3,4-b]pyrrolo[3,4-d]pyridin-7(3H)-yl)methyl]piperidine-1-carboxylate]",C (C = <50% INHIBITION),C (C = <50% INHIBITION),A (A = 80-100% INHIBITION),C (C = <50% INHIBITION),A (A = 80-100% INHIBITION),A (A = 80-100% INHIBITION)
285 to 300,"O=C1NC(=O)c2c1cnc1[nH]ncc21 [Example 1, pyrazolo[3,4-b]pyrrolo[3,4-d]pyridine-6,8(3H,7H)-dione]",–,–,–,–,–,–
293 to 295,"N#Cc1ccc(CN2C(=O)c3cnc4[nH]ncc4c3C2=O)cc1 [Example 41, 4-[(6,8-dioxo-6,8-dihydropyrazolo[3,4-b]pyrrolo[3,4-d]pyridin-7(3H)-yl)methyl]benzonitrile]",–,–,–,–,–,–
> 300,"O=C1c2cnc3[nH]ncc3c2C(=O)N1CC1CCNCC1 [Example 57, 7-(piperidin-4-ylmethyl)pyrazolo[3,4-b]pyrrolo[3,4-d]pyridine-6,8(3H,7H)-dione]",–,–,–,–,–,–
